According to PMC5688144, “Assay interference and off-target liabilities of reported histone acetyltransferase inhibitors” (Nature Communications, 2017):
Entries after “also recorded” stand apart in the source; their conditions may differ.

Assays:
p300/CBP = settings: cited from earlier work
AmpC β-lactamase = target: T1, AmpC β-lactamase (Escherichia coli, UniProt P00811); assay: biochemical; design: species or system E. coli; settings: 10 μM compound; for AmpC aggregation counter-screen: ± 0.01% Triton X-100
T1 construct: Recombinant E. coli AmpC (amino acids 20–377); purchased MyBioSource.com
Experimental: Selected compounds were assessed for aggregation using a modified AmpC β-lactamase counter-screen[24],[32],[64]. Recombinant E. coli AmpC (amino acids 20–377) was obtained from MyBioSource.com. Testing was performed in ALARM NMR buffer (25 mM sodium phosphate, pH 7.0) in flat-bottom UV-transparent 96-well microplates in 150 μL reaction volumes. Compounds were tested in triplicate at 10 μM final concentrations in either the presence or absence of freshly-prepared 0.01% Triton X-100 (v/v). Final concentration of DMSO was 2.0% (v/v). Compounds were incubated with ~5 nM AmpC in 147 μL reaction buffer for 5 min at RT, followed by the addition of 3 μL of nitrocefin substrate (100 μM final concentration). Reaction solutions were gently mixed by pipetting up and down three times using a multichannel pipette. […] Percent activity was normalized to DMSO-only controls. Fluconazole and lidocaine were included as negative aggregation control compounds. Rottlerin was included as a positive aggregation control compound. Aggregators were defined as compounds with significant detergent-dependent changes in AmpC activity (t-test, adjusted P-value <0.05; mean differences greater than 30%). Activators were defined as compounds that increased AmpC enzymatic activity.

Absorbance spectra = assay type: physicochemical; settings: 25 mM sodium phosphate, pH 7.0
Experimental: Selected test compounds were assessed for absorption between 300 and 750 nm. Most compound absorption spectra were obtained at 100, 50, and 10 μM final compound concentrations in ALARM NMR buffer (25 mM sodium phosphate, pH 7.0). Final concentration of DMSO was constant at 2.0% (v/v). Compounds were allowed to incubate at RT in buffer for 10 min in UV-transparent polystyrene 384-well plates. Absorbance spectra were then obtained on a SpectraMax M3 or BMG Labtech CLARIOstar microplate reader at 25 °C. Significant absorbance was defined as molar absorptivity constants greater than 2000 M^−1 cm^−1 at wavelengths greater than 300 nm.

[1] = Fluorescence quenching counter-screen; assay type: physicochemical; settings: 10 μM fluorophore; 32 nM-100 μM compound
Experimental: Selected test compounds were assessed for fluorescence quenching using adaptions of previously published procedures[9],[24]. Briefly, test compounds and individual fluorophore standards were incubated together. The fluorescence intensity of these mixtures was compared to the fluorescence intensity of the same fluorophore standards minus test compounds. Each microplate contained positive control columns (DMSO plus fixed concentration of a single fluorophore), negative control columns (DMSO), and experimental wells (test compounds plus fixed concentration of a single fluorophore). […] Final concentration of DMSO was constant at 2.0% (v/v). […] All measurements were performed in ALARM NMR buffer (25 mM sodium phosphate, pH 7.0) at 25 °C. Aliquots of 20 μL buffer were dispensed into microplate wells via ThermoFisher Multidrop dispenser. Microplates were shaken for 1 min on a plate shaker, centrifuged briefly for 1 min at 1000×g, then allowed to incubate at RT for 10 min before measuring fluorescence intensity on a SpectraMax M3 plate reader under reduced lighting. Instrument settings for each fluorophore were unchanged from the aforementioned autofluorescence studies.

[2] = Autofluorescence counter-screen; assay type: physicochemical; settings: autofluorescence at eight fluorophore settings; 32 nM-100 μM compound
Experimental: Selected test compounds were assessed for autofluorescence using an adaption of published procedures. […] Final concentration of DMSO was constant at 1.0% (v/v). Compounds and fluorophore standards were transferred as 10 mM DMSO stock solutions to 384-well black polystyrene microplates via Echo 550 dispenser. The plate arrangement was purposefully designed to minimize optical crosstalk by fluorophore standards. All measurements were performed in ALARM NMR buffer (25 mM sodium phosphate, pH 7.0) at 25 °C. Aliquots of 20 μL buffer were dispensed into microplate wells via ThermoFisher Multidrop dispenser. Compounds were shaken for 1 min on a plate shaker, centrifuged briefly for 1 min at 1000×g, then allowed to incubate at RT in buffer for 10 min before measuring fluorescence intensity on a SpectraMax M3 plate reader under reduced lighting. […] Bandwidth filters were set to default mode. Fluorescence intensity was measured for each test compound using each of the eight fluorophore standard settings. Fluorophores present on each plate were then used to construct normalized fluorescence dose-responses (“fluorophore-equivalent concentrations”, FEC). Fluorescence intensity for each test compound was converted to the appropriate FEC.

human La antigen = target: T2, human La antigen (Homo sapiens, UniProt P05455, T302N); assay: ALARM NMR; assay type: binding; settings: 400 μM compound
T2 construct: amino acids 100–324 of the human La antigen (plus T302N mutation); 6xHis (N); 6xHis (C); host or cells: Escherichia coli Rosetta cells
T2 sequence (P05455 100-324 T302N): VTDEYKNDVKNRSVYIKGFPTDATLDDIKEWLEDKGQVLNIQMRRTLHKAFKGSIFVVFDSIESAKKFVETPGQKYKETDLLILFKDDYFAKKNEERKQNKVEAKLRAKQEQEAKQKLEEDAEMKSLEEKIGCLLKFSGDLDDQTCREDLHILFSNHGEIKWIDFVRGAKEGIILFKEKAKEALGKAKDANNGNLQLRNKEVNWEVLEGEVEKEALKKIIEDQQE
Description: The gene encoding amino acids 100–324 of the human La antigen (plus T302N mutation) was cloned into pET28b + vector (Novagen) with both an N- and C-terminal 6xHis tag (addgene.org, plasmid ID 90209). The sequence identity of the ALARM NMR plasmid construct was verified by Sanger sequencing of the transgene region and next-generation sequencing of the whole plasmid.
Plasmid was transformed into Escherichia coli Rosetta cells (Novagen) and cultured in M9 minimal media. The La antigen was labeled by adding ^13C-labeled amino acid precursors ([3-^13C]-α-ketobutyrate and [3,3′-^13C]-α-ketoisovalerate sodium salts; Cambridge Isotope Laboratories; 250 mg L^−1 final concentrations) to culture medium 30 min before induction with IPTG (1 mM final concentration). Bacteria were collected after incubation at 25 °C for 8 h and washed with ice-cold phosphate-buffered saline (PBS). Washed cells were lysed by French press in ice-cold lysis buffer (50 mM Tris, pH 7.6, 300 mM NaCl, 10% glycerol (v/v), 5 mM β-mercaptoethanol (BME), 5 mM imidazole, 2 mM MgCl2, benzonase, and protease inhibitor cocktail), followed by an additional brief sonication step (3 × 15 s pulse sequence) on ice. This lysed solution was centrifuged (30,000×g for 30 min, two cycles) to remove cellular debris, then loaded onto a pre-washed Ni-NTA bead column (Qiagen) kept at 4 °C and washed with buffer (50 mM Tris, pH 7.6, 300 mM NaCl, 10% glycerol (v/v), 5 mM BME, 5 mM imidazole). The La antigen was eluted with an elution buffer (50 mM Tris, pH 7.6, 300 mM NaCl, 10% glycerol (v/v), 5 mM BME, imidazole gradient ranging from 5 mM to 0.5 M). […] Aliquots were flash-frozen in liquid N2 and stored at −80 °C until further use. Before use, aliquots of ~150 μM protein were incubated in the presence of 20 mM DTT at 37 °C for 1 h, then dialyzed (25 mM sodium phosphate buffer, pH 7.0 (no DTT)) in 16 h cycles at 4 °C with constant nitrogen bubbling and with gentle stirring, for three total buffer cycles.
For standard testing conditions, the [^1H-^13C]-HMQC spectra were acquired in 25 mM sodium phosphate buffer, pH 7.0, 10% D2O (v/v; CIL) ± 400 μM test compounds delivered from the aforementioned stock solutions, and ± 20 mM non-deuterated DTT. Final concentration of DMSO was 4.0% (v/v). Reaction solutions were mixed, then centrifuged for 5 min (1000×g) in non-binding 384-well microplates at RT, then incubated at 37 °C for 1 h and then 30 °C for 15 h before obtaining spectra. Samples were checked for evidence of gross precipitation. Data were recorded at 298 K on a Bruker UltraShield 700 MHz NMR spectrometer equipped with a Bruker 1.7 mm TCI Cryoprobe and Bruker SampleJet autosampler. Samples were tested at 50 μM protein concentrations using 16 scans, 2048 complex points in F2, and 80 points in F1 using standard protein [^1H-^13C]-HMQC and water suppression pulse sequences.
Data were analyzed in TopSpin™ 3.5 (Bruker). Reactions were normalized to equivalent DMSO controls. Non-reactive compounds were identified by the absence of chemical shifts or changes in peak intensities (^13C-methyl) ± 20 mM DTT.

HEK293T and MCF7 cells [3] = assay: Membrane permeability (SYTOX green uptake); assay type: cell-based; settings: for membrane permeability: Sytox green dead-cell dye uptake
Experimental: (§1) For cell growth analyses, cells were seeded in 96-well plates, treated with compounds for the indicated times, and monitored over time in a live cell Incucyte™ ZOOM imager (Essen Biosciences). To label apoptotic and dead cells, caspase 3/7 activatable DEVD recognition motif NucView™ 488 DNA intercalating dye (1:1000 dilution, Essen Biosciences) and SYTOX™ green nucleic acid stain (1:1000 dilution, Invitrogen) were used respectively, following manufacturer instructions.

[4] = system: caspase 3/7 activity in HEK293T and MCF7 cells; assay: Live-cell caspase 3/7 activity; assay type: cell-based; settings: 24 h after compound addition
Experimental: as §1

[5] = system: H3K27ac levels in HEK293T and MCF7 cells; assay: Cellular H3K27ac western blot; assay type: cell-based; settings: 10 and 30 μM compound
Experimental: (§2) Cells were cultured in DMEM supplemented with 10% fetal bovine serum (Winsent), penicillin (100 U mL^−1), and streptomycin (100 µg mL^−1). Compounds dissolved in DMSO or matching DMSO-only controls were added to cells for indicated times. Compound effects in cells were determined as described[67] and are outlined below.
For western blot analyses, cells were lysed in lysis buffer (20 mM Tris–HCl, pH 8, 150 mM NaCl, 1 mM EDTA, 10 mM MgCl2, 0.5% Triton X-100 (v/v), 12.5 U mL^−1 benzonase (Sigma), complete EDTA-free protease inhibitor cocktail (Roche)). After 3 min incubation at RT, SDS was added to final 1% concentration (w/v). Total cell lysates were resolved in 4–12% Bis-Tris protein gels (Invitrogen) with MOPS buffer (Invitrogen) and transferred for 1.5 h (80 V) onto PVDF membrane (Millipore) in tris-glycine transfer buffer containing 20% methanol and 0.05% SDS. Blots were blocked for 1 h in blocking buffer (5% milk in 0.1% Tween 20/PBS) and incubated with respective primary antibodies: H3K27ac (1:1000, CST #8173), H3 (1:1000, Abcam #10799), p300 (1:2000, Bethyl #A300-358A), CBP (1:1000, Bethyl #A300-362A), actin (1:3000, Abcam #3280), α-tubulin (1:1000, 12G10 DHSB), and α-tubulin-K40ac (1:2000, Abcam #179484) in blocking buffer overnight at 4 °C. After five washes with 0.1% Tween 20/PBS, the blots were incubated with goat anti-rabbit IgG (IRDye 800-conjugated, LiCor #926-32211) and donkey anti-mouse IgG (IRDye 680-conjugated, LiCor #926-68072) antibodies (1:5000) in Odyssey Blocking Buffer (LiCor) for 1 h at RT and washed with 0.1% Tween 20/PBS. The signal was read on an Odyssey scanner (LiCor) at 800 and 700 nm. Representative uncropped images with molecular weight markers are provided (Supplementary Figs. 9, 12, 13).

HEK293T and MCF7 cells [6] = assay: Cell proliferation by cell confluence; assay type: cell-based; settings: 10 and 30 μM compound, 24 h
Experimental: as §2, §1

For `c1cc(SSc2ccns2)sn1` [Compound 2, NU-9056], the IC50 (p300/CBP; original report, 27 (Supplementary References)) is listed as 59 µM and the AmpC aggregation counter-screen (AmpC β-lactamase) is listed as “Detergent-insensitive”.

With `CCCCCCCCCCCCCCC=C(C(=O)OCC)C(=O)OCC` [Compound 19, LoCAM] the “Absorption max (nm)” value (Absorbance spectra) was “Nominal”, the Absorbance counter-screen (Absorbance spectra; 300-750 nm) was “Negative” and the Quenching counter-screen [1] was “Negative”. The “% inhibition, p300/CBP” value (p300/CBP; @ 50 µM, ref 23 (Supplementary References)) was 74%, the Fluorescence counter-screen [2] was “Negative” and the “AmpC counter-screen result” value (AmpC β-lactamase; detergent-sensitive modulation) was “likely aggregators”. The AmpC aggregation counter-screen (AmpC β-lactamase) was “Detergent-sensitive (Aggregators were defined as compounds with significant detergent-dependent changes in AmpC activity (t-test, adjusted P-value <0.05; mean differences greater than 30%))”, the “ALARM NMR, (-) DTT” value (human La antigen; 0 mM DTT) was “Negative” and the “ALARM NMR, (+) DTT” value (human La antigen; DTT present) was “Negative”. For the same compound, the “ALARM NMR interpretation” value (human La antigen; with and without DTT) was “Inert as tested”.

In the case of `O=C(O)CCSc1cc(NS(=O)(=O)c2ccc(Br)cc2)c2ccccc2c1O` [Compound 24, JMC2015-6a], the “cytotoxicity by membrane integrity studies” value (HEK293T and MCF7 cells [3]; 30 µM compound, MCF7 cells) is reported as “cytotoxic”, the membrane permeability (HEK293T and MCF7 cells [3]) is reported as “increased” and the “caspase 3/7 activity” value [4] is reported as “induce; also recorded: increased”.

In the case of `O=[N+]([O-])c1cc(Br)c2nsnc2c1Sc1ncnc2[nH]cnc12` [Compound 26, JMC2015-2a], the membrane permeability (HEK293T and MCF7 cells [3]) is reported as “increased” and the “caspase 3/7 activity” value [4] is reported as “induce; also recorded: increased”.

For `O=C1C(Cl)=C(NCCN2CCOCC2)C(=O)c2ncccc21` [NSC-663284], the membrane permeability (HEK293T and MCF7 cells [3]) was “increased”, the “caspase 3/7 activity” value [4] was “induce; also recorded: increased” and the “cellular H3K27ac levels” value [5] was “decreased H3K27ac levels”.

For `CC(=O)c1c(O)c(C)c(O)c(Cc2c(O)c3c(c(C(=O)/C=C/c4ccccc4)c2O)OC(C)(C)C=C3)c1O` [Rottlerin], the “effect on cell proliferation (cell confluence)” value (HEK293T and MCF7 cells [6]) was “cytotoxic effects”, the “effect on cell proliferation (cell confluence)” value (HEK293T and MCF7 cells [6]; listed as rottlerin) was “anti-proliferative effects” and the “cellular H3K27ac levels” value [5] was “decreased H3K27ac levels”.
